The values that follow come from ChEMBL document CHEMBL1125512, “Synthesis and antiviral activity of methyl derivatives of 9-[2-(phosphonomethoxy)ethyl]guanine” (J Med Chem, 1992).

The subject of data set [1] is Vero. As to the kind of experiment: In vitro antiherpesvirus activity against vero cells infected with HSV-2(G strain)[plaque reduction assay]. In kind it is functional, cell-based. The note with it: Chlorocebus sabaeus.
Data set [2] in a line: In vitro cellular toxicity in vero cells. The note with it: read-out: TC50 (the source's name). Type of data set: cell-based.
A short description of data set [3]: Selectivity Index is the ratio of the TC50 to EC50. Conditions: read-out: Selectivity index.
Data set [4] is described as follows: Toxicity in vitro against CEM cells by XTT assay. Type of data set: cell-based. The note with it: human, CCRF-CEM (CEM) cells; read-out: TC50 (the source's name).
In data set [5] the test system is CCRF-CEM. Kind of data set: In vitro anti -HIV activity tested against CEM cells infected with HIV by XTT assay. Type of data set: functional, cell-based. The note with it: Homo sapiens.
Data set [6] in a line: In vitro cellular toxicity in MRC-5 cells. Type of data set: cell-based, MRC5. Conditions: human, read-out: TC50 (the source's name).
In data set [7] the test system is MRC5. As to the kind of experiment: In vitro antiherpesvirus activity against MRC-5 cells infected with HCMV (AD-169 strain). In kind it is functional, cell-based. Conditions: Homo sapiens.
Data set [8] deals with CCRF-CEM. Kind of data set: In vitro CEM cell growth inhibition by measuring the number of cells after treatment for 72 hours. The note with it: Homo sapiens. In kind it is functional.
A short description of data set [9]: In vitro cellular toxicity in WI-38 cells. In kind it is cell-based. Conditions: human, read-out: TC50 (the source's name).

As to `CC(C)(OCCn1cnc2c(O)nc(N)nc21)P(=O)(O)O`, the IC50 in data set [1] is above 300 µM. Moreover, the CC50 in data set [2] (chlorocebus sabaeus) was above 330 µM.
As for `CC(COCP(=O)(O)O)n1cnc2c(O)nc(N)nc21` (stereo not drawn), the selectivity ratio in data set [3] was found to be 25. The CC50 in [4] was 250 µM; in data set [6] it was above 300 µM; in data set [2] (chlorocebus sabaeus) it was 200 µM. In addition, in [5], the EC50 is 5 µM. Moreover, the half-maximal inhibitory concentration (IC50) in data set [1] turned out to be 11 µM; in [7], 1.3 µM.
On to `Cc1nc2c(O)nc(N)nc2n1CCOCP(=O)(O)O`, for which the selectivity ratio in [3] is above 1. Further, the CC50 in [4] is above 100 µM; in [2] (chlorocebus sabaeus), above 330 µM. The compound also came in with an EC50 in data set [5] above 100 µM. The compound further displayed an IC50 in [1] of 172 µM.
On to `C[C@@H](Cn1cnc2c(O)nc(N)nc21)OCP(=O)(O)O`, for which the selectivity ratio in [3] was determined as 25. The CC50 in [4] is 300 µM; in data set [8], 12 µM; in data set [6], above 330 µM; in data set [2] (chlorocebus sabaeus) it was above 330 µM. Moreover, the EC50 in [5] was 12 µM. Also, the IC50 in data set [1] was found to be 43 µM; in data set [7] it was 16 µM.
On to `C[C@H](Cn1cnc2c(O)nc(N)nc21)OCP(=O)(O)O`, for which the selectivity ratio in data set [3] was above 500. Also, the CC50 in [4] was above 500 µM; in data set [8] it was 180 µM; in data set [6], above 330 µM; in data set [2] (chlorocebus sabaeus), above 330 µM. For the same compound, in data set [5], the EC50 was 1 µM. In addition, the values for the IC50 in data set [1] and in data set [7] were 82 µM and 16 µM, respectively.
Take `CC(OCCn1cnc2c(O)nc(N)nc21)P(=O)(O)O` (stereo not drawn): in data set [3], the selectivity ratio is above 1. Also, the CC50 in [4] is above 100 µM; in data set [2] (chlorocebus sabaeus) it was above 330 µM. In data set [5], this compound registered an EC50 above 100 µM. This compound also yielded an IC50 in [1] of 158 µM.
In the case of `CC(C)(Cn1cnc2c(O)nc(N)nc21)OCP(=O)(O)O`, the selectivity ratio in data set [3] is above 38. The CC50 was above 100 µM in data set [4] and above 330 µM in data set [9]. This compound gave an EC50 in data set [5] of 2.6 µM. The IC50 in [1] and in data set [7] was above 300 µM each time.
In the case of `Nc1nc2c(ncn2CC(CO)OCP(=O)(O)O)c(=O)[nH]1` (single isomer, unassigned; form 1), in [3], the selectivity ratio was above 1. Moreover, the CC50 in data set [4] was above 500 µM; in data set [6] it was above 310 µM; in data set [2] (chlorocebus sabaeus), above 310 µM. This compound also came in with an EC50 in data set [5] of 500 µM. The IC50 in data set [1] was 99 µM; in [7] it was 1.6 µM.
Turning to `Nc1nc(O)c2ncn(CC(CO)OCP(=O)(O)O)c2n1` (single isomer, unassigned; form 2), the selectivity ratio in [3] was below 1. Moreover, the CC50 was 350 µM in data set [4], above 310 µM in [6] and above 310 µM in data set [2] (chlorocebus sabaeus). Further, in [5], the concentration giving a half-maximal response (EC50) is above 500 µM. Moreover, the IC50 in data set [1] amounted to 97 µM; in data set [7] it was 0.8 µM.
For the compound `Nc1nc2c(ncn2COCCO)c(=O)[nH]1` [ACYCLOVIR], the IC50 in [1] is 1.2 µM.
In the case of `Nc1ncnc2c1ncn2CCOCP(=O)(O)O` [ADEFOVIR], in data set [3], the selectivity ratio was above 27. For the same compound, the CC50 in [4] is above 500 µM. The same compound displayed an EC50 in [5] of 18 µM.
`Nc1nc2c(ncn2COC(CO)CO)c(=O)[nH]1` [GANCICLOVIR] came in with an IC50 in data set [7] of 4 µM.
For the compound `Nc1nc2c(ncn2CCOCP(=O)(O)O)c(=O)[nH]1` [GS-438], in data set [3], the selectivity ratio was 75. Moreover, the CC50 in data set [4] was determined as 15 µM; in [8] it was 0.2 µM; in data set [6] it was 30 µM; in data set [2], 17 µM. Besides, the EC50 in data set [5] is 0.2 µM. The IC50 stood at 1.1 µM in data set [1] and 0.09 µM in data set [7].
